Among the data in patent publication US10787450B2 (BRISTOL-MYERS SQUIBB COMPANY, priority 2016, dated 2020) are IC50 values, retold here.

As usually defined, the IC50 is the midpoint of a concentration-inhibition curve.

Sequence of ROCK2 (O75116 whole entry, species assumed): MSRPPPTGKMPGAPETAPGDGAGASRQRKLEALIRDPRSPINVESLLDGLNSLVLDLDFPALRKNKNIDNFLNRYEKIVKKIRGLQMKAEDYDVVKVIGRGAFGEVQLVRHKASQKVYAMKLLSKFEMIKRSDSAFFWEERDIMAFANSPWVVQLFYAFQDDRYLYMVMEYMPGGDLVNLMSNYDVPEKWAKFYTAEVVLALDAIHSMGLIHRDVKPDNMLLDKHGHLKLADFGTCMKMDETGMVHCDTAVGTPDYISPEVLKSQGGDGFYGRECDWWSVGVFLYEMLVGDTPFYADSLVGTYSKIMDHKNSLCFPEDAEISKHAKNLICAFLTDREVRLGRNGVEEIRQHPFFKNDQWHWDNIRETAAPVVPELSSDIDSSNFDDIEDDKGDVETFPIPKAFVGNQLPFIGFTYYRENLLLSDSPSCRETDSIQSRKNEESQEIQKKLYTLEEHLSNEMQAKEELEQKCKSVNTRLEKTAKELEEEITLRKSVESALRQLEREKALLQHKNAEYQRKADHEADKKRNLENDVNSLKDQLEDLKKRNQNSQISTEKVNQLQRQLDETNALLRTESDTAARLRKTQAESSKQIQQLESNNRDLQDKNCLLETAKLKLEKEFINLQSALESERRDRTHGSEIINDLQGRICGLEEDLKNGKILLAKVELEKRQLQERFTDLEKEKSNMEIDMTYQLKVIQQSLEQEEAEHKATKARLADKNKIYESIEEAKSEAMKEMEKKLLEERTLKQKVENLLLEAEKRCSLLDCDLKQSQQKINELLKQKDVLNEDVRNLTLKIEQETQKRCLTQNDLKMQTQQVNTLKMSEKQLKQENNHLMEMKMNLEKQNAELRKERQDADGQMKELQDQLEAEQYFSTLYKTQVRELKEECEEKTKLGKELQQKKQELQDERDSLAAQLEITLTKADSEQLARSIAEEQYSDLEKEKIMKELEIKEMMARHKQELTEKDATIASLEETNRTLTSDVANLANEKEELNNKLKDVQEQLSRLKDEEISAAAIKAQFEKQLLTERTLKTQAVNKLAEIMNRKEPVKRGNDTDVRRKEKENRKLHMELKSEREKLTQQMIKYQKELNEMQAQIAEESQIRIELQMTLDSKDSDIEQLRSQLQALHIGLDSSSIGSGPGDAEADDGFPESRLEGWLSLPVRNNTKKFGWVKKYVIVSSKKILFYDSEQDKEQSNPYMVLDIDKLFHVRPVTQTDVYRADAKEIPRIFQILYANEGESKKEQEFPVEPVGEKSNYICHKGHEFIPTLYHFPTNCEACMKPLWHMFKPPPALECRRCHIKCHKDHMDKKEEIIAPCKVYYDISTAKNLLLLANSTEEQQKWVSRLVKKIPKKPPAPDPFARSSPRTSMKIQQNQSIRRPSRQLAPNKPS

The test has as its target ROCK2 (Homo sapiens (Human), UniProt O75116). As to the kind of experiment: ROCK2 kinase inhibition assay (FITC peptide substrate, LABCHIP 3000 Reader). The conditions noted are these: 5 μM ATP, 1.5 μM peptide substrate. In kind it is biochemical. The method, then: The effectiveness of compounds of the present invention as ROCK inhibitors can be determined in a 30 μL assay containing 20 mM HEPES, pH 7.5, 20 mM MgCl2, 0.015% Brij-35, 4 mM DTT, 5 μM ATP and 1.5 μM peptide substrate (FITC-AHA-AKRRRLSSLRA-OH) (SEQ ID NO. 1). Compounds were dissolved in DMSO so that the final concentration of DMSO was <2%, and the reaction was initiated with Rho kinase variants. After incubation, the reaction was terminated by the addition of EDTA and the phosphorylated and non-phosphorylated peptides separated using a LABCHIP® 3000 Reader (Caliper Life Sciences). […] Compounds were tested in dose-response format, and the inhibition of kinase activity was calculated at each concentration of compound. The inhibition data were fit using a curve-fitting program to determine the IC50; i.e., the concentration of compound required to inhibit 50% of kinase activity.
Representative examples were tested in the ROCK2 assay described above and found having ROCK2 inhibitory activity.
Consider `COc1cccc(CN2C(=O)N(c3ccc(-c4cn[nH]c4)cn3)CC23CCN(C(=O)CO)CC3)c1` [Example 195, 3-(5-(1H-pyrazol-4-yl)pyridin-2-yl)-8-(2-hydroxyacetyl)-1-(3-methoxybenzyl)-1,3,8-triazaspiro[4.5]decan-2-one], for which the IC50 was 3 to 30 nM.

In turn, `COc1cccc(C(C)N2C(=O)N(c3ccc(-c4cn[nH]c4)cc3)CC23CC3)c1` (single isomer, unassigned) [Example 3, 6-(4-(1H-pyrazol-4-yl)phenyl)-4-(1-(3-methoxyphenyl)ethyl)-4,6-diazaspiro[2.4]heptan-5-one] came in with an IC50 of 30 to 250 nM.

The compound `Cc1c(F)cccc1CN1C(=O)N(c2ccc(-c3cn[nH]c3)cc2)CC12CCN(C(=O)C1(C)COC1)CC2` [Example 189, 3-(4-(1H-pyrazol-4-yl)phenyl)-1-(3-fluoro-2-methylbenzyl)-8-(3-methyloxetane-3-carbonyl)-1,3,8-triazaspiro[4.5]decan-2-one] yielded an IC50 of 3 to 30 nM.

Consider `CC(=O)N1CCC2(CC1)CN(c1ccc(-c3cn[nH]c3)cc1)C(=O)N2Cc1cc(F)ccc1F` [Example 78, 3-(4-(1H-pyrazol-4-yl)phenyl)-8-acetyl-1-(2,5-difluorobenzyl)-1,3,8-triazaspiro[4.5]decan-2-one], for which the IC50 was in the range of 30 to 250 nM.

With `COc1cccc(CN2C(=O)N(c3ccc(-c4cn[nH]c4)cn3)CC23CCN(C(=O)OC(C)(C)C)CC3)c1` [Example 51, tert-butyl 3-(5-(1H-pyrazol-4-yl)pyridin-2-yl)-1-(3-methoxybenzyl)-2-oxo-1,3,8-triazaspiro[4.5]decane-8-carboxylate], the IC50 fell in the range of 3 to 30 nM.

In the case of `O=C1N(c2ccc(-c3cn[nH]c3)cc2)CC2(CCOCC2)N1Cc1cccc(Cl)c1` [Example 15], the IC50 lay in the range of 250 to 3000 nM.

For the compound `COc1cccc(CN2C(=O)N(c3ncc(-c4cn[nH]c4)c(OC)n3)CC23CCN(C(=O)[C@@H]2CC2(F)F)CC3)c1` [Example 213, (S)-8-(2,2-difluorocyclopropane-carbonyl)-3-(4-methoxy-5-(1H-pyrazol-4-yl)pyrimidin-2-yl)-1-(3-methoxybenzyl)-1,3,8-triazaspiro[4.5]decan-2-one], the IC50 fell in the range of 3 to 30 nM.

`COC(=O)N1CCC2(CC1)CN(c1ccc(-c3cn[nH]c3)cc1)C(=O)C2Nc1cccc(OC)c1` (stereo not drawn) [Example 251, methyl 2-(4-(1H-pyrazol-4-yl)phenyl)-4-((3-methoxy-phenyl)amino)-3-oxo-2,8-diazaspiro [4.5]decane-8-carboxylate] came in with an IC50 of 250 to 3000 nM.

`CCc1cc(N2CC3(CC3)N(Cc3cc(F)cc(OC)c3)C2=O)ccc1-c1cn[nH]c1` [Example 4, 6-(3-ethyl-4-(1H-pyrazol-4-yl)phenyl)-4-(3-fluoro-5-methoxybenzyl)-4,6-diazaspiro[2.4]heptan-5-one] displayed an IC50 of 3 to 30 nM.

In the case of `O=C(NC1CCC1)c1cccc(CN2C(=O)N(c3ccc(-c4cn[nH]c4)cc3)CC23CCOCC3)c1` [Example 33, 3-((3-(4-(1H-pyrazol-4-yl)phenyl)-2-oxo-8-oxa-1,3-diazaspiro[4.5]decan-1-yl)methyl)-N-cyclobutylbenzamide], the IC50 was less than 3 nM.

Compound `COc1cccc(CN2C(=O)N(c3ccc(-c4cn[nH]c4)cn3)CC23CCN(CC(C)O)CC3)c1` (stereo not drawn) [Example 160, 3-(5-(1H-pyrazol-4-yl)pyridin-2-yl)-8-(2-hydroxypropyl)-1-(3-methoxybenzyl)-1,3,8-triazaspiro[4.5]decan-2-one] showed an IC50 of 3 to 30 nM.

On to `COc1nc(N2CC3(CCN(C(=O)OC(C)(C)C)CC3)N(Cc3cccc(F)c3C)C2=O)ccc1-c1cn[nH]c1` [Example 55, tert-butyl 1-(3-fluoro-2-methylbenzyl)-3-(6-methoxy-5-(1H-pyrazol-4-yl)pyridin-2-yl)-2-oxo-1,3,8-triazaspiro[4.5]decane-8-carboxylate], for which the half-maximal inhibitory concentration (IC50) was 3 to 30 nM.

`COc1nc(N2CC3(CCN(C(=O)CN(C)C)CC3)N(Cc3cccc(F)c3C)C2=O)ccc1-c1cn[nH]c1` [Example 225, 8-(2-(dimethylamino)acetyl)-1-(3-fluoro-2-methylbenzyl)-3-(6-methoxy-5-(1H-pyrazol-4-yl)pyridin-2-yl)-1,3,8-triazaspiro[4.5]decan-2-one] displayed an IC50 of less than 3 nM.

In turn, `CCc1nc(N2CC3(CCN(C(C)=O)CC3)N(Cc3cc(F)cc(OC)c3)C2=O)ccc1-c1cn[nH]c1` [Example 89, 8-acetyl-3-(6-ethyl-5-(1H-pyrazol-4-yl)pyridin-2-yl)-1-(3-fluoro-5-methoxybenzyl)-1,3,8-triazaspiro[4.5]decan-2-one] returned an IC50 of less than 3 nM.

In turn, `O=C1N(c2ccc(-c3cn[nH]c3)cc2)CC2(CCOCC2)N1Cc1ccc(F)cc1F` [Example 22, 3-(4-(1H-pyrazol-4-yl)phenyl)-1-(2,4-difluorobenzyl)-8-oxa-1,3-diazaspiro[4.5]decan-2-one] gave an IC50 of 30 to 250 nM.

`CC(C)NC(=O)c1cccc(CN2C(=O)N(c3ccc(-c4cn[nH]c4)cc3)CC23CCOCC3)c1` [Example 34, 3-((3-(4-(1H-pyrazol-4-yl)phenyl)-2-oxo-8-oxa-1,3-diazaspiro[4.5]decan-1-yl)methyl)-N-isopropylbenzamide] showed an IC50 of 3 to 30 nM.

For the compound `COc1cccc(NC2C(=O)N(c3ccc(-c4cn[nH]c4)cc3)CC23CCN(C(C)=O)CC3)c1` (stereo not drawn) [Example 249, -(4-(1H-pyrazol-4-yl)phenyl)-8-acetyl-4-((3-methoxy-phenyl)amino)-2,8-diazaspiro [4.5]decan-3-one], the half-inhibitory concentration (IC50) fell in the range of 250 to 3000 nM.

For the compound `COc1cccc(CN2C(=O)N(c3ccc(-c4cn[nH]c4)cc3)CC23CCOCC3)c1F` [Example 29, 3-(4-(1H-pyrazol-4-yl)phenyl)-1-(2-fluoro-3-methoxybenzyl)-8-oxa-1,3-diazaspiro[4.5]decan-2-one], the IC50 was in the range of 30 to 250 nM.

`COc1cccc(CN2C(=O)N(c3ccc(-c4cn[nH]c4)cn3)CC23CCN(C(C)=O)CC3)c1` [Example 50, 3-(5-(1H-pyrazol-4-yl)pyridin-2-yl)-8-acetyl-1-(3-methoxybenzyl)-1,3,8-triazaspiro[4.5]decan-2-one] gave an IC50 of 3 to 30 nM.

As for `O=C1N(c2ccc(-c3cn[nH]c3)cc2)CC2(CC2)N1Cc1cccc(OCC2CC2)c1` [Example 7, 6-(4-(1H-pyrazol-4-yl)phenyl)-4-(3-(cycloproylmethoxy)benzyl)-4,6-diazaspiro[2.4]heptan-5-one], the IC50 lay in the range of 3 to 30 nM.

Take `COc1cccc(CN2C(=O)N(c3ccc(-c4cn[nH]c4)cc3)CC23CCN(C(=O)c2cnn4ccccc24)CC3)c1` [Example 180, 3-(4-(1H-pyrazol-4-yl)phenyl)-1-(3-methoxybenzyl)-8-(pyrazolo[1,5-a]pyridine-3-carbonyl)-1,3,8-triazaspiro[4.5] decan-2-one]: the IC50 was in the range of 3 to 30 nM.

In turn, `CCc1cc(N2CC3(CC3)N(Cc3cccc(OC)c3)C2=O)ccc1-c1cn[nH]c1` [Example 5, 6-(3-ethyl-4-(1H-pyrazol-4-yl)phenyl)-4-(3-methoxybenzyl)-4,6-diazaspiro[2.4]heptan-5-one] registered an IC50 of less than 3 nM.

The compound `COc1cccc(CN2C(=O)N(c3ccc(-c4cn[nH]c4)cn3)CC23CCN(CCO)CC3)c1` [Example 159, 3-(5-(1H-pyrazol-4-yl)pyridin-2-yl)-8-(2-hydroxyethyl)-1-(3-methoxybenzyl)-1,3,8-triazaspiro[4.5]decan-2-one] gave an IC50 of less than 3 nM.

On to `CCc1nc(N2CC3(CCN(C(=O)C4CC(F)C4)CC3)N(Cc3cccc(OC)c3)C2=O)ccc1-c1cn[nH]c1` (stereo not drawn) [Example 208, 3-(6-ethyl-5-(1H-pyrazol-4-yl)pyridin-2-yl)-8-(3-fluorocyclobutane-carbonyl)-1-(3-methoxybenzyl)-1,3,8-triazaspiro[4.5]decan-2-one], for which the IC50 is 3 to 30 nM.

`COc1cccc(CN2C(=O)N(c3ccc(-c4cn[nH]c4)c(OC)n3)CC23CCN(C(=O)C2COC2)CC3)c1` [Example 223, 3-(6-methoxy-5-(1H-pyrazol-4-yl)pyridin-2-yl)-1-(3-methoxybenzyl)-8-(oxetane-3-carbonyl)-1,3,8-triazaspiro[4.5]decan-2-one] yielded an IC50 of less than 3 nM.

As to `CCc1nc(N2CC3(CCN(C(=O)C4CC(F)(F)C4)CC3)N(Cc3cccc(OC)c3)C2=O)ccc1-c1cn[nH]c1` [Example 202, 8-(3,3-difluorocyclobutane-carbonyl)-3-(6-ethyl-5-(1H-pyrazol-4-yl)pyridin-2-yl)-1-(3-methoxybenzyl)-1,3,8-triazaspiro[4.5]decan-2-one], the IC50 is less than 3 nM.

In the case of `COc1cccc(CN2C(=O)N(c3ccc(-c4cn[nH]c4)cn3)CC23CCN(C(C)=O)CC3)c1` [Example 84, 3-(5-(1H-pyrazol-4-yl)pyridin-2-yl)-8-acetyl-1-(3-methoxybenzyl)-1,3,8-triazaspiro[4.5]decan-2-one], the IC50 is less than 3 nM.

In turn, `COCC(=O)N1CCC2(CC1)CN(c1ccc(-c3cn[nH]c3)c(OC)n1)C(=O)N2Cc1cccc(OC)c1` [Example 219, 3-(6-methoxy-5-(1H-pyrazol-4-yl)pyridin-2-yl)-8-(2-methoxyacetyl)-1-(3-methoxybenzyl)-1,3,8-triazaspiro[4.5]decan-2-one] returned an IC50 of less than 3 nM.

In turn, `COc1cc(F)cc(CN2C(=O)N(c3ccc(-c4cn[nH]c4)cc3)CC23CCN(C2COC2)CC3)c1` [Example 236, 3-(4-(1H-pyrazol-4-yl)phenyl)-1-(3-fluoro-5-methoxy-benzyl)-8-(oxetan-3-yl)-1,3,8-triazaspiro [4.5]decan-2-one] gave an IC50 of less than 3 nM.

As for `COc1cccc(CN2C(=O)N(c3ncc(-c4cn[nH]c4)c(OC)n3)CC23CCN(C(=O)CC(C)C)CC3)c1` [Example 214, 3-(4-methoxy-5-(1H-pyrazol-4-yl)pyrimidin-2-yl)-1-(3-methoxybenzyl)-8-(3-methylbutanoyl)-1,3,8-triazaspiro[4.5]decan-2-one], the IC50 lay within 3 to 30 nM.
